Converted amounts (≈) assume the structure as drawn.
Tests used:
Assay type in all cases: functional
Enterococcus faecalis = assay: Antibacterial activity against Enterococcus faecalis after 16 hrs by agar dilution method
Streptococcus pneumoniae = assay: Antibacterial activity against penicillin-resistant Streptococcus pneumoniae after 16 hrs by agar dilution method
Staphylococcus aureus [1] = assay: Antibacterial activity against Staphylococcus aureus ATCC 29213 after 16 hrs by agar dilution method; details: ATCC 29213, 16 h
[2] = system: Staphylococcus epidermidis; assay: Antibacterial activity against methicillin-resistant Staphylococcus epidermidis after 16 hrs by agar dilution method
Staphylococcus aureus [3] = assay: Antibacterial activity against methicillin-resistant Staphylococcus aureus after 16 hrs by agar dilution method

Structure (SMILES)	MIC (Enterococcus faecalis)	MIC (Streptococcus pneumoniae)	MIC (Staphylococcus aureus [1])	MIC [2]	MIC (Staphylococcus aureus [3])
CC(=O)NC[C@@H]1OC(=O)N2c3ccc(-c4cnc(N)nc4)cc3OC[C@@H]12	2 µg/mL (≈ 5.63 µM)	1 µg/mL (≈ 2.81 µM)	1 µg/mL (≈ 2.81 µM)	1 µg/mL (≈ 2.81 µM)	1 µg/mL (≈ 2.81 µM)
CC(=O)NC[C@@H]1OC(=O)N2c3ccc(-c4cnc(C#N)nc4)cc3OC[C@@H]12	2 µg/mL (≈ 5.47 µM)	2 µg/mL (≈ 5.47 µM)	1 µg/mL (≈ 2.74 µM)	0.5 µg/mL (≈ 1.37 µM)	1 µg/mL (≈ 2.74 µM)
CC(=O)NC[C@@H]1OC(=O)N2c3cc(F)c(-c4ccncc4)cc3OC[C@@H]12	8 µg/mL (≈ 22.4 µM)	8 µg/mL (≈ 22.4 µM)	2 µg/mL (≈ 5.6 µM)	2 µg/mL (≈ 5.6 µM)	4 µg/mL (≈ 11.2 µM)
CC(=O)NC[C@@H]1OC(=O)N2c3cc(F)c(-c4cccnc4)cc3OC[C@@H]12	2 µg/mL (≈ 5.6 µM)	2 µg/mL (≈ 5.6 µM)	2 µg/mL (≈ 5.6 µM)	1 µg/mL (≈ 2.8 µM)	1 µg/mL (≈ 2.8 µM)
CC(=O)NC[C@@H]1OC(=O)N2c3cc(F)c(-c4ccc(C#N)nc4)cc3OC[C@@H]12	2 µg/mL (≈ 5.23 µM)	2 µg/mL (≈ 5.23 µM)	2 µg/mL (≈ 5.23 µM)	1 µg/mL (≈ 2.62 µM)	1 µg/mL (≈ 2.62 µM)
CC(=O)NC[C@@H]1OC(=O)N2c3ccc(-c4ccc(NC(C)=O)nc4)cc3OC[C@@H]12	1 µg/mL (≈ 2.52 µM)	1 µg/mL (≈ 2.52 µM)	0.5 µg/mL (≈ 1.26 µM)	1 µg/mL (≈ 2.52 µM)	0.5 µg/mL (≈ 1.26 µM)
CC(=O)NC[C@@H]1OC(=O)N2c3ccc(-c4ccc(-c5nnn(C)n5)nc4)cc3OC[C@@H]12	1 µg/mL (≈ 2.37 µM)	0.5 µg/mL (≈ 1.19 µM)	0.5 µg/mL (≈ 1.19 µM)	0.5 µg/mL (≈ 1.19 µM)	0.5 µg/mL (≈ 1.19 µM)
CC(=O)NC[C@@H]1OC(=O)N2c3ccc(-c4ccc(-c5noc(C)n5)nc4)cc3OC[C@@H]12	1 µg/mL (≈ 2.37 µM)	1 µg/mL (≈ 2.37 µM)	0.25 µg/mL (≈ 0.593 µM)	0.5 µg/mL (≈ 1.19 µM)	0.5 µg/mL (≈ 1.19 µM)
CC(=O)NC[C@@H]1OC(=O)N2c3ccc(-c4ccc(CC#N)nc4)cc3OC[C@@H]12	0.5 µg/mL (≈ 1.32 µM)	0.5 µg/mL (≈ 1.32 µM)	0.25 µg/mL (≈ 0.661 µM)	0.25 µg/mL (≈ 0.661 µM)	0.25 µg/mL (≈ 0.661 µM)
CC(=O)NC[C@@H]1OC(=O)N2c3ccc(-c4ccc(N5CCNCC5)nc4)cc3OC[C@@H]12	0.5 µg/mL (≈ 1.18 µM)	1 µg/mL (≈ 2.36 µM)	0.5 µg/mL (≈ 1.18 µM)	0.5 µg/mL (≈ 1.18 µM)	1 µg/mL (≈ 2.36 µM)
CC(=O)NC[C@@H]1OC(=O)N2c3ccc(-c4ccc(C(=O)N(C)C)nc4)cc3OC[C@@H]12	2 µg/mL (≈ 4.87 µM)	2 µg/mL (≈ 4.87 µM)	2 µg/mL (≈ 4.87 µM)	1 µg/mL (≈ 2.44 µM)	1 µg/mL (≈ 2.44 µM)
CC(=O)NC[C@@H]1OC(=O)N2c3ccc(-c4ccc(-n5cncn5)nc4)cc3OC[C@@H]12	2 µg/mL (≈ 4.92 µM)	2 µg/mL (≈ 4.92 µM)	0.5 µg/mL (≈ 1.23 µM)	1 µg/mL (≈ 2.46 µM)	1 µg/mL (≈ 2.46 µM)
CC(=O)NC[C@@H]1OC(=O)N2c3ccc(-c4ccc(C(F)(F)F)nc4)cc3OC[C@@H]12	2 µg/mL (≈ 4.91 µM)	2 µg/mL (≈ 4.91 µM)	2 µg/mL (≈ 4.91 µM)	1 µg/mL (≈ 2.45 µM)	1 µg/mL (≈ 2.45 µM)
COC(=O)c1ccc(-c2ccc3c(c2)OC[C@H]2[C@H](CNC(C)=O)OC(=O)N32)cn1	1 µg/mL (≈ 2.52 µM)	1 µg/mL (≈ 2.52 µM)	0.5 µg/mL (≈ 1.26 µM)	0.5 µg/mL (≈ 1.26 µM)	0.5 µg/mL (≈ 1.26 µM)
CC(=O)NC[C@@H]1OC(=O)N2c3ccc(-c4cncc(C#N)c4)cc3OC[C@@H]12	1 µg/mL (≈ 2.74 µM)	0.5 µg/mL (≈ 1.37 µM)	0.5 µg/mL (≈ 1.37 µM)	0.5 µg/mL (≈ 1.37 µM)	0.5 µg/mL (≈ 1.37 µM)
CC(=O)NC[C@@H]1OC(=O)N2c3ccc(-c4ccc(C#N)cn4)cc3OC[C@@H]12	2 µg/mL (≈ 5.49 µM)	2 µg/mL (≈ 5.49 µM)	2 µg/mL (≈ 5.49 µM)	1 µg/mL (≈ 2.74 µM)	1 µg/mL (≈ 2.74 µM)
CC(=O)NC[C@@H]1OC(=O)N2c3ccc(-c4cc(C#N)ccn4)cc3OC[C@@H]12	1 µg/mL (≈ 2.74 µM)	0.25 µg/mL (≈ 0.686 µM)	0.5 µg/mL (≈ 1.37 µM)	0.25 µg/mL (≈ 0.686 µM)	0.5 µg/mL (≈ 1.37 µM)
CC(=O)NC[C@@H]1OC(=O)N2c3ccc(-c4cncc(C(C)=O)c4)cc3OC[C@@H]12	1 µg/mL (≈ 2.62 µM)	1 µg/mL (≈ 2.62 µM)	1 µg/mL (≈ 2.62 µM)	0.5 µg/mL (≈ 1.31 µM)	1 µg/mL (≈ 2.62 µM)
CC(=O)NC[C@@H]1OC(=O)N2c3ccc(-c4ccc(C(C)=O)cn4)cc3OC[C@@H]12	4 µg/mL (≈ 10.5 µM)	2 µg/mL (≈ 5.24 µM)	2 µg/mL (≈ 5.24 µM)	2 µg/mL (≈ 5.24 µM)	2 µg/mL (≈ 5.24 µM)
CC(=O)NC[C@@H]1OC(=O)N2c3ccc(-c4cncc(N5CCOC5=O)c4)cc3OC[C@@H]12	0.5 µg/mL (≈ 1.18 µM)	1 µg/mL (≈ 2.36 µM)	1 µg/mL (≈ 2.36 µM)	0.5 µg/mL (≈ 1.18 µM)	0.5 µg/mL (≈ 1.18 µM)
CC(=O)NC[C@@H]1OC(=O)N2c3ccc(-c4ccc(N5CCOC5=O)cn4)cc3OC[C@@H]12	2 µg/mL (≈ 4.71 µM)	1 µg/mL (≈ 2.36 µM)	1 µg/mL (≈ 2.36 µM)	1 µg/mL (≈ 2.36 µM)	1 µg/mL (≈ 2.36 µM)
CC(=O)NC[C@@H]1OC(=O)N2c3ccc(-c4ccc(C#N)nc4)cc3OC[C@H]12	> 16 µg/mL	> 16 µg/mL	> 16 µg/mL	> 16 µg/mL	> 16 µg/mL
CC(=O)NC[C@@H]1OC(=O)N2c3ccc(-c4ccc(-n5ccnc5)nc4)cc3OC[C@@H]12	1 µg/mL (≈ 2.47 µM)	0.5 µg/mL (≈ 1.23 µM)	0.5 µg/mL (≈ 1.23 µM)	0.5 µg/mL (≈ 1.23 µM)	0.5 µg/mL (≈ 1.23 µM)

From ChEMBL document CHEMBL1914384, “Design, synthesis, and structure-activity relationship studies of highly potent novel benzoxazinyl-oxazolidinone antibacterial agents” (J Med Chem, 2011)
